The values that follow come from patent publication US20170312296A1, “AGENTS FOR KILLING HIV-1-INFECTED CELLS AND APPLICATION THEREOF” (KAGOSHIMA UNIVERSITY, priority 2015, published 2017).

Data set [1] deals with HIV-1-infected CD4-positive T lymphocytes (CD4T). Nature of the data set: Cell viability (dye method) in CD4T-derived HIV-1 chronically infected cell model. The settings on record: for effect on the cell death-inducing effect specific for HIV-1-infected cells due to entinostat: Example 6, CD4T, combination with entinostat; for cell death-inducing effect specific for HIV-1-infected cells in CD4T: Example 5: treated 4 days from day 3 or from day 7 after infection. The class given is cell-based, human. The procedure: In this Example, the action of various HDAC inhibitors on HIV-1-infected CD4T was analyzed using CD4T purified from human peripheral blood mononuclear cells.
(§1) In this Example, it was examined whether combined use with an HIV-1 reverse transcriptase inhibitor provided the same effect, by conducting a combination experiment with entinostat according to the experimental procedure shown in FIG. 13 using tenofovir (TFV) as one of the clinically most used HIV-1 reverse transcriptase inhibitors.
(§2) Then, it was examined whether combined use with an HIV-1 integrase inhibitor provided the same effect by conducting a combination experiment with entinostat according to the experimental procedure shown in FIG. 15 using dolutegravir (DTG) as one of the clinically most used HIV-1 integrase inhibitors.

Data set [2] deals with HIV-1 strain IIIB. Nature of the data set: Amount of HIV-1 produced (HIV-1 p24 Antigen ELISA) in HIV-1-infected CD4T. Type of data set: cell-based.
From the text: as §1, §2
Background: In an ELISA, binding on a coated surface is turned into a signal by an enzyme label.

For data set [3], the system named is HIV-1 latently infected cells (reservoir cells). Particulars: literature report (Johnstone 2002); cited from earlier work.
In data set [4] the test system is mock-infected CD4-positive T lymphocytes (CD4T). The data set can be described thus: Cell viability (dye method) of mock-infected CD4T. The class given is cell-based, human. Particulars: Example 5, CD4T.
The subject of data set [5] is HIV-1-infected human peripheral blood mononuclear cells. The data set can be described thus: Cell viability (dye method) in HIV-1 chronically infected cell model derived from human peripheral blood mononuclear cells. The settings on record: for cell death-inducing effect specific for HIV-1-infected cells: Example 4: treatment after 11 days culture; for effect on the cell death-inducing effect specific for HIV-1-infected cells due to entinostat: Example 2: combination with entinostat 0.5 μM after protease inhibitor pretreatment. The procedure:
Healthy donor-derived peripheral blood mononuclear cells were infected with HIV-1 strain IIIB in vitro to prepare an HIV-1 chronically infected cell model derived from human peripheral blood mononuclear cells, and a combination effect of an HIV-1 protease inhibitor (NFV or SQV) and an HDAC inhibitor (entinostat or vorinostat) was examined.
After HIV-1 infection or pseudo-infection (=mock-infection), the cells were cultured for 7 days and treated with various concentrations of each HIV-1 protease inhibitor for 3 days. For 3 days thereafter, treatment was carried out using combinations of each HIV-1 protease inhibitor having the same concentration and each HDAC inhibitor. The cell viability in each sample was measured by a dye method, and the amount of HIV-1 produced, by an ELISA method (HIV-1 p24 Antigen ELISA). […]

The test system of data set [6] is mock-infected human peripheral blood mononuclear cells. Nature of the data set: Cell viability (dye method) of mock-infected human peripheral blood mononuclear cells. The class given is cell-based. The settings on record: Example 4. The procedure:
After HIV-1 infection or pseudo-infection (=mock-infection), the cells were cultured for 7 days and treated with various concentrations of each HIV-1 protease inhibitor for 3 days. For 3 days thereafter, treatment was carried out using combinations of each HIV-1 protease inhibitor having the same concentration and each HDAC inhibitor. The cell viability in each sample was measured by a dye method, and the amount of HIV-1 produced, by an ELISA method (HIV-1 p24 Antigen ELISA).
After HIV-1 infection or pseudo-infection (=mock-infection), culture was performed for 11 days, and for 3 days from day 12, the combined administration of each HIV-1 protease inhibitor having various concentrations and the HDAC inhibitor was carried out. The cell viability in each sample was measured by a dye method, and the amount of HIV-1 produced, by an ELISA method (HIV-1 p24 Antigen ELISA).
After HIV-1 infection or pseudo-infection (=mock-infection), the cells were cultured for 11 days and treated with various concentrations of each HDAC inhibitor. The cell viability in each sample was measured by a dye method, and the amount of HIV-1 produced, by an ELISA method (HIV-1 p24 Antigen ELISA).

The test system of data set [7] is HIV-1 strain IIIB. The data set can be described thus: Amount of HIV-1 produced (HIV-1 p24 Antigen ELISA) in HIV-1-infected human peripheral blood mononuclear cells. Type of data set: cell-based.
The next data set relates to Cleaved caspase-3. The data set can be described thus: Western blot of cleaved caspase-3 in CD4T. The settings on record: entinostat 0.5 μM. Type of data set: cell-based, human. The procedure: (§3) The extracted protein was analyzed by a Western blot method.
(§4) The expression of each of Cleaved caspase-3 and Cleaved PARP was corrected with the expression of β-tublin as an internal control to make a graph.

In the next data set the test system is Cleaved PARP. The data set can be described thus: Western blot of cleaved PARP in CD4T. The class given is cell-based, human. How it is done:
as §3, §4
On the technique in general: Immunoblotting shows a protein as a band on a membrane.

The mark [8] stands for this setting: Example 2: protease inhibitor pretreatment 3 days, then combination 3 days, in the presence of entinostat of 0.5 μM.
[9] abbreviates: Example 3: simultaneous administration with entinostat, no pretreatment, 3 days from day 12.

Take `C[C@H](Cn1cnc2c(N)ncnc21)OCP(=O)(O)O` [tenofovir]: the “effect on the cell death-inducing effect specific for HIV-1-infected cells due to entinostat” value in [1] is recorded as “did not affect”. Further, the “concentration at which HIV-1 production was still not suppressed” value in the data set on HIV-1 strain IIIB [2] (Example 6, CD4T, irrespective of the presence or absence of entinostat) is more than 1 µM.
Regarding `O=C(CCCCCCC(=O)Nc1ccccc1)NO` [vorinostat], the “cell death-inducing effect specific for HIV-1-infected cells in CD4T” value (from here on “cell death-inducing effect specific … in CD4T”) in data set [1] is “no cell death-inducing effect specific for HIV-1-infected cells”. Further, the “activation of HIV-1 latently infected cells to induce HIV-1 production” value in data set [3] is “activate HIV-1 latently infected cells”.
With chidamide, the “toxicity to mock-infected cells compared to entinostat” value in data set [4] is listed as “less toxic”. Further, in data set [5] (Example 4), the “cell death-inducing effect specific for HIV-1-infected cells compared with entinostat” value was “weaker cell death-inducing effect”. In addition, the “cell death-inducing effect specific for HIV-1-infected cells” value in data set [5] is recorded as “cell death-inducing effect specific for HIV-1-infected cells”. The “cell death-inducing effect against infected cells compared to entinostat” value in data set [1] (Example 5, CD4T) was “weaker cell death-inducing effect”. The “cell death-inducing effect specific … in CD4T” value in data set [1] is given as “cell death-inducing effect specific for HIV-1-infected cells”. Moreover, the “toxicity to mock-infected cells compared with entinostat” value in [6] is listed as “less toxic”.
Regarding `Cc1c(O)cccc1C(=O)N[C@@H](CSc1ccccc1)[C@H](O)CN1C[C@H]2CCCC[C@H]2C[C@H]1C(=O)NC(C)(C)C` [nelfinavir], the “effect on the cell death-inducing effect specific for HIV-1-infected cells due to entinostat” value in data set [5] is “did not affect”. Besides, the HIV-1 production entry in the data set with HIV-1 strain IIIB [7] (setting [8]) is “concentration-dependently suppressed HIV-1 production”; in the data set on HIV-1 strain IIIB [7] (setting [9]), “suppressing HIV-1 production”.
For orientation: viability means the share of living cells, or the viability signal relative to a control. As to `Nc1ccccc1NC(=O)c1ccc(CNC(=O)OCc2cccnc2)cc1` [entinostat], the “increase of cleaved caspase-3 in HIV-1-infected CD4T versus pseudo-infected CD4T” value with Cleaved caspase-3 (24 hours) is recorded as “more marked”. Further, the “activated form of caspase-3 (cleaved caspase-3) expression” value in the data set with Cleaved caspase-3 (24 hours, pseudo-infected CD4T (Mock) and HIV-1-infected CD4T (HIV)) is on record as “increase”. Besides, in the data set with Cleaved caspase-3 (48 hours, pseudo-infected CD4T and HIV-1-infected CD4T), the “increase in activated form of caspase-3” value is listed as “not observed”. Further, in data set [5], the “cell death-inducing effect specific for HIV-1-infected cells” value was “cell death-inducing effect specific for HIV-1-infected cells”. Moreover, the viability at 0.5 µM in [5] (Homo sapiens, PBMC, read-out: cell viability of HIV-1-infected cells relative to cell viability of pseudo-infected (non-infected) cells) was approximately 50%. The “cell death-inducing effect specific … in CD4T” value in [1] was “cell death-inducing effect specific for HIV-1-infected cells”. Also, the “effect of the HDAC inhibitor on HIV-1 production in infected cells” value in the data set on HIV-1 strain IIIB [7] (entinostat alone) is “activates HIV-1 production”. In addition, in the data set on Cleaved PARP (entinostat 0.5 μM, 24 hours, pseudo-infected CD4T and HIV-1-infected CD4T), the “cleaved PARP expression” value is reported as “increase in the cleaved PARP was observed”. Also, in the data set on Cleaved PARP (entinostat, 48 hours, HIV-1-infected CD4T), the “expression of PARP (cleaved)” value is on record as “markedly increased”. In addition, the “activation of HIV-1 latently infected cells to induce HIV-1 production” value in data set [3] was “activate HIV-1 latently infected cells”.
Take `CC(C)(C)NC(=O)[C@@H]1C[C@@H]2CCCC[C@@H]2CN1C[C@@H](O)[C@H](Cc1ccccc1)NC(=O)[C@H](CC(N)=O)NC(=O)c1ccc2ccccc2n1` [SQV, saquinavir]: the “effect on the cell death-inducing effect specific for HIV-1-infected cells due to entinostat” value in [5] was “did not affect”. Also, the HIV-1 production result in the data set with HIV-1 strain IIIB [7] (setting [8]) is reported as “concentration-dependently suppressed HIV-1 production”.
`CC(C)CN(C[C@@H](O)[C@H](Cc1ccccc1)NC(=O)O[C@H]1CO[C@H]2OCC[C@H]21)S(=O)(=O)c1ccc(N)cc1` [darunavir]: the “concentration that strongly suppressed the increase in HIV-1 production due to entinostat” value in the data set with HIV-1 strain IIIB [7] (Example 3: simultaneous administration with entinostat) is listed as not below 100 nM. The HIV-1 production result in the data set on HIV-1 strain IIIB [7] (setting [9]) was “suppressing HIV-1 production”. In addition, in the data set with HIV-1 strain IIIB [2] (Example 6: 100 nM, administered simultaneously with entinostat, CD4T), the “activation of HIV-1 production by entinostat” value was “strongly suppressing”.
Regarding `C[C@@H]1CCO[C@H]2Cn3cc(C(=O)NCc4ccc(F)cc4F)c(=O)c(O)c3C(=O)N12` [dolutegravir], the “effect on the cell death-inducing effect specific for HIV-1-infected cells due to entinostat” value in data set [1] is “did not affect”. Besides, the anti-HIV-1 effect result in the data set with HIV-1 strain IIIB [2] (Example 6, CD4T, in the absence of entinostat) is reported as “hardly had an anti-HIV-1 effect”.
